Measured values taken from patent US12599676B2, “Cytotoxic imidazo[1,2-A]pyridine compounds and their use in therapy” (MyricX Pharma Limited, priority 2022, dated 2026).

Key:
[1] = test system: Caco-2 cells; test: Caco-2 cell permeability assay; assay type: in vitro ADME; conditions: apical to basal Papp, 2 μM, pH 7.4, 2.5 h
How it was run: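 Caco-2 monolayers grown 10 days were dosed at 2 μM (1% DMSO) on the donor side in HBSS/10 mM HEPES pH 7.4, for both AB and BA directions, then incubated 2.5 h at 37 °C without shaking. Donor and acceptor samples were quantified by LC-MS/MS to give Papp. Wells that failed a Lucifer Yellow integrity check (>1% passage) were excluded.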

[2] = test system: LYXFDLBC4009 (patient-derived xenograft lymphoma); test: Cell cytotoxicity CellTiter-Glo, LYXFDLBC4009; assay type: cell-based
Description: (§1) Cells were seeded in 96-well microplates and treated with compounds or cisplatin (as a positive control) at 9 increasing concentrations in technical triplicate. […] On day 1, 90 μL of various cell suspensions with the number of cells ranging from 5000-8000 cells/well were seeded into wells of a 96-well plate (Corning). The number of cells to be seeded was previously determined. • 2. All 96-wells plates with cells were placed in an incubator overnight at 37° C. with 5% CO2. • 3. On day 2, cells were observed under a microscope ensuring the cells treated with vehicle control were in good condition. • 4. A dilution series of the test compounds and cisplatin were prepared at 10× the final concentrations required. 10 μL/well of 10× compound solution was added to the corresponding plates. The final volume was 100 μL/well for all the plates. Final DMSO concentration was 0.1%. • 5. On day 5 (after 72 hours of incubation), 50 μL of CTG reagent was added to each well. • 6. Contents were mixed for 5 minutes on an orbital shaker to facilitate cell lysis. • 7. The plate was allowed to incubate at room temperature for 10 minutes to stabilize luminescent signals.
(§2) The effects of Comparator Compound 1 and certain Example compounds on the viability of various cell lines (LYXFDLBC2835, LYXFDLBC4009 and LYXFDLBC411 (patient-derived xenograft lymphoma), HT1080 (human fibrosarcoma), CA46 (human B cell lymphoma), RKO (human colon carcinoma), NCI-H1703 (human lung squamous cell carcinoma), MX-1 (human breast carcinoma), DU4475 (human breast carcinoma), LU2511 (human lung large cell undifferentiated carcinoma), LU0884 (human lung squamous cell carcinoma)), Panc-1 (human pancreatic carcinoma), MCF-7 (human breast cancer), SW480 (human colon adenocarcinoma) and HCC1806 (human breast ductal carcinoma) were performed using the standard CellTiter-Glo assay (CTG, Promega) as described in Biological Example 2. Compounds which show efficacy in these assays are expected to be useful as agents for treating or preventing hyperproliferative disorders such as cancer.

[3] = test system: LU0884 (human lung squamous cell carcinoma); test: Cell cytotoxicity CellTiter-Glo, LU0884; assay type: cell-based
Description: as §1, with “signals. […]” for “signals.”

[4] = test system: LYXFDLBC4113 (patient-derived xenograft lymphoma); test: Cell cytotoxicity CellTiter-Glo, LYXFDLBC4113; assay type: cell-based
Description: as §1, §2

[5] = test system: SU-DHL-10 cell line (human B cell lymphoma); test: Cell cytotoxicity in SU-DHL-10 cell line (CellTiter-Glo); assay type: cell-based; conditions: Homo sapiens, SU-DHL10, 72 h, 72 h treatment, CTG
How it was run: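 Cells seeded at 5000-8000/well, dosed next day with 9 concentrations in triplicate (DMSO 0.1% final) and incubated 72 h at 37° C, 5% CO2. Viability by CellTiter-Glo luminescence normalised to vehicle (100%) and medium blank; IC50 from sigmoidal nonlinear regression.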

[6] = test system: LYXFDLBC2835 (patient-derived xenograft lymphoma); test: Cell cytotoxicity CellTiter-Glo, LYXFDLBC2835; assay type: cell-based
Description: as §1, §2

[7] = test system: LU2511 (human lung large cell undifferentiated carcinoma); test: Cell cytotoxicity CellTiter-Glo, LU2511; assay type: cell-based
Description: as §1, with “signals. […]” for “signals.”

Structure (SMILES)	Caco-2 A-B [1] [×10⁻⁶ cm/s]	IC50 [2] [nM]	IC50 [3] [nM]	IC50 [4] [nM]	IC50 [5] [nM]	IC50 [6] [nM]	IC50 [7] [nM]
CNCc1cnc2ccc(-c3ccc(F)c(F)c3OCCc3c(C(O)C(C)(C)C)nn(C)c3C)cn12 (single isomer, unassigned) [Example 12, 1-(4-(2-(2,3-difluoro-6-(3-((methylamino)methyl)imidazo[1,2-a]pyridin-6-yl)phenoxy)ethyl)-1,5-dimethyl-1H-pyrazol-3-yl)-2,2-dimethylpropan-1-ol]	0.95	3	3	3	0.6	10	0.07
Cc1c(CCOc2cc(Cl)ccc2-c2ccc3ncc(CCN)n3c2)c(C(=O)N(C)C)nn1C [Comparator Compound 1, 4-(2-{2-[3-(2-aminoethyl)imidazo[1,2-a]pyridin-6-yl]-5-chlorophenoxy}ethyl)-N,N,1,5-tetramethyl-1H-pyrazole-3-carboxamide, reference compound]	0.0	1540	44	890	5	130	9
